Measured values taken from publication PMC8290231 (Cancer Medicine, 2021).
Where two headings read alike, the source gives them in different places.

How the values were obtained:
MKN‐1 = test: CCK-8 cell proliferation assay; format: cell-based; conditions: Homo sapiens, read-out: antiproliferative IC50, MKN‐1
Method: (§1) The base medium for MDA‐MB‐453 cell line is DMEM medium (CORNING, USA). All other cell lines were cultured in RPMI‐1640 medium supplemented with 10% FBS, 100 U/ml of penicillin, and […] of streptomycin in 5% CO2 at 37℃. The cells in the logarithmic growth phase were used for the experiments.
(§2) Cells were seeded in 96‐well plate in complete medium (1000–6000 cells/well) and cultured for overnight. Then the cells were exposed to gradient concentrations (0.0005–10 μM) of compounds. Cell proliferation was analyzed by Cell Counting Kit 8 (CK04, Dojindo Laboratories, Japan) after co‐incubation for a further 72 h. IC50 values were calculated by fitting of concentration–response curves using GraphPad Prism 8.01 software. Each assay was repeated at least three times.
(§3) The expression and activation levels of FGFR1–4 in these cells were determined via western blot experiments (Figure S1).

MDA‐MB‐231 = test: CCK-8 cell proliferation assay; format: cell-based; conditions: Homo sapiens, MDA-MB-231, 72 h
Method: as §1, §2, §3

RT112 = test: CCK-8 cell proliferation assay; format: cell-based; conditions: Homo sapiens, read-out: antiproliferative IC50, RT112
Method: as §1, §2, §3

MDA‐MB‐453 = test: CCK-8 cell proliferation assay; format: cell-based; conditions: Homo sapiens, read-out: antiproliferative IC50, MDA‐MB‐453
Method: as §1, §2, §3

A204 = test: CCK-8 cell proliferation assay; format: cell-based; conditions: Homo sapiens, read-out: antiproliferative IC50, A204
Method: as §1, §2, §3

A549 = test: CCK-8 cell proliferation assay; format: cell-based; conditions: Homo sapiens, A549, 72 h, read-out: antiproliferative IC50, A549
Method: as §1, §2, §3

KATOIII = test: CCK-8 cell proliferation assay; format: cell-based; conditions: Homo sapiens, KATO III, read-out: antiproliferative IC50, KATOIII
Method: as §1, §2, §3

NCI‐H716 = test: CCK-8 cell proliferation assay; format: cell-based; conditions: Homo sapiens, read-out: antiproliferative IC50, NCI‐H716
Method: as §1, §2, §3

H1581 = test: CCK-8 cell proliferation assay; format: cell-based; conditions: Homo sapiens, read-out: antiproliferative IC50, H1581
Method: as §1, §2, §3

Ba/F3(+IL‐3) = test: CCK-8 proliferation assay in parental Ba/F3 cells; format: cell-based; conditions: Mus musculus, read-out: IC50 (μΜ) Ba/F3(+IL‐3)
Method: (§4) The Ba/F3 cell lines stably expressing FGFR1, FGFR1‐V561M, FGFR1‐V561F, FGFR1‐K656N, and FGFR1‐K656E were self‐established through electroporation pCDNA3.1‐TEL plasmids using the Amaxa Cell Line Nucleofector Kit V (Lonza, Cologne, Germany). Stable cell lines were selected by G418 (Merck, USA) and then withdrawal of IL‐3 (R&D). […] Parental Ba/F3 cells were maintained in RPMI 1640 supplemented with 10% FBS, 100 U/ml of penicillin, […] of streptomycin, and 10 ng/ml of IL‐3, while all Ba/F3 stable cell lines were cultured in the same medium without IL‐3.
as §2
(§5) There is, however, no commercially available FGFR1 mutant kinase to validate this. Therefore, we constructed Ba/F3 model cells stably expressing FGFR1‐WT, K656E, K656N, V561M, and V561F mutations.

FGFR1 WT = conditions: no reference given; cited from earlier work
SNU16 = test: CCK-8 cell proliferation assay; format: cell-based; conditions: Homo sapiens, SNU-16, 72 h, read-out: antiproliferative IC50, SNU16
Method: as §1, §2, §3

FGFR1‐V561M = conditions: no reference given; cited from earlier work
Ba/F3‐FGFR1‐K656E = test: CCK-8 proliferation assay in Ba/F3 stable cells; format: cell-based; conditions: Mus musculus, BaF3, 72 h, read-out: IC50 (μΜ) Ba/F3‐FGFR1‐K656E
Method: as §4, §2, §5

Ba/F3‐FGFR1 = test: CCK-8 proliferation assay in Ba/F3 stable cells; format: cell-based; conditions: Mus musculus, BaF3, 72 h, read-out: IC50 (μΜ) Ba/F3‐FGFR1
Method: as §4, §2, §5

Ba/F3‐FGFR1‐K656N = test: CCK-8 proliferation assay in Ba/F3 stable cells; format: cell-based; conditions: Mus musculus, BaF3, 72 h, read-out: IC50 (μΜ) Ba/F3‐FGFR1‐K656N
Method: as §4, §2, §5

Ba/F3‐FGFR1‐V561F [1] = test: CCK-8 proliferation assay in Ba/F3 stable cells; format: cell-based; conditions: Mus musculus, BaF3, 72 h, read-out: IC50 (μΜ) Ba/F3‐FGFR1‐V561F
Method: as §4, §2, §5

Ba/F3‐FGFR1‐V561M = test: CCK-8 proliferation assay in Ba/F3 stable cells; format: cell-based
Method: as §4, §2, §5

Ba/F3‐FGFR1‐V561F [2] = test: Apoptosis assay by flow cytometry (Annexin V / 7-AAD); format: cell-based; conditions: 1000 nM
Method: After incubation, cells were collected and washed twice with pre‐cold PBS. About 6 × 10^5 cells were resuspended in 100 μl of 1× BD binding buffer solution (#556454, BD), and then stained with 7‐ADD (#559925, BD) and Annexin V‐PE (#556422, BD) in the dark for 15 min. Finally, 400 μl of 1×BD binding buffer solution were added to stop dyeing. The cells were then measured on a Guava easyCyte flow cytometer (Merck, USA).

Ba/F3‐FGFR1‐V561F [3] = test: Cell cycle analysis by flow cytometry (propidium iodide); format: cell-based; conditions: 1000 nM
Method: About 6 × 10^5 cells were re‐suspended in 150 μl of BD Cytofix/Cytoperm buffer solution I for 10 min at room temperature. The cell suspensions were added with BD Cytofix/Cytoperm buffer solution II and incubated with another 10 min at room temperature, and then incubated with 200 μl of propidium iodide buffer (0.1 mg/ml) in the dark for 10 min at 4℃. Assays were performed with a Guava easyCyte flow cytometer (Merck, USA).

## COCCNc1cc(NC(=O)N2CCCc3cc(CN4CCN(C)CC4=O)c(C=O)nc32)ncc1C#N [FGF401]
MKN‐1; MKN-1, negative control, CCK-8, 72 h
  IC50: > 10000 nM
MDA‐MB‐231; read-out: antiproliferative IC50, MDA‐MB‐231, negative control, CCK-8, 72 h
  IC50: > 10000 nM
RT112; RT-112, FGFR3‐TACC3, CCK-8, 72 h
  IC50: > 10000 nM
MDA‐MB‐453; MDA-MB-453, FGFR4‐Y367C, CCK-8, 72 h
  IC50: 62.3 ± 27.7 nM
A204; A204, FGFR1 amplification, CCK-8, 72 h
  IC50: 8.25 ± 0.708 µM
A549; negative control, CCK-8, 72 h
  IC50: > 10000 nM
KATOIII; FGFR2 amplification, CCK-8, 72 h
  IC50: 9.38 ± 2.86 µM
NCI‐H716; NCI-H716, FGFR2 amplification, CCK-8, 72 h
  IC50: > 10000 nM
H1581; NCI-H1581, FGFR1 amplification, CCK-8, 72 h
  IC50: > 10000 nM

## CCN1C(=O)N(c2c(F)c(OC)cc(OC)c2F)Cc2cnc3[nH]c(CN4CCOCC4)cc3c21 [Pemigatinib]
Ba/F3(+IL‐3); BaF3, parental cells with IL-3, CCK-8, 72 h
  IC50: 8.98 ± 1.4 µM

## Cc1ccc(C(=O)Nc2ccc(CN3CCN(C)CC3)c(C(F)(F)F)c2)cc1C#Cc1cnc2cccnn12 [Ponatinib]
FGFR1 WT
  reported FGFR1 WT kinase inhibitory activity: 1.6
MKN‐1; MKN-1, 72 h
  IC50: 758 ± 72 nM
MDA‐MB‐231; read-out: antiproliferative IC50, MDA‐MB‐231
  IC50: 701 ± 69.9 nM
RT112; RT-112, 72 h
  IC50: 216 ± 8.2 nM
MDA‐MB‐453; MDA-MB-453, 72 h
  IC50: 707 ± 26.4 nM
A204; A204, 72 h
  IC50: 0.169 ± 0.134 µM
A549
  IC50: 990 ± 54.1 nM
KATOIII; 72 h
  IC50: 0.0187 ± 0.0008 µM
SNU16
  IC50: 78.2 ± 10.2 nM
NCI‐H716; NCI-H716, 72 h
  IC50: 26.4 ± 2.9 nM
H1581; NCI-H1581, 72 h
  IC50: 128 ± 19.1 nM
FGFR1‐V561M
  reported FGFR1‐V561M kinase inhibitory activity: 18.6
Ba/F3‐FGFR1‐K656E
  IC50: 88 ± 28 nM
Ba/F3‐FGFR1
  IC50: 33 ± 2.8 nM
Ba/F3‐FGFR1‐K656N
  IC50: 47 ± 8.8 nM
Ba/F3‐FGFR1‐V561F [1]
  IC50: 56 ± 9 nM
Ba/F3‐FGFR1‐V561M
  fold increase of IC50 value, Ba/F3‐FGFR1‐V561M compared to Ba/F3‐FGFR1‐WT: 10 fold
Ba/F3‐FGFR1‐V561M; Mus musculus, BaF3, 72 h, read-out: IC50 (μΜ) Ba/F3‐FGFR1‐V561M
  IC50: 400 ± 11 nM
Ba/F3(+IL‐3); BaF3, 72 h
  IC50: 2.38 ± 0.42 µM

## C=CC(=O)N1CC[C@H](n2nc(C#Cc3cc(OC)cc(OC)c3)c3c(N)ncnc32)C1 [TAS120]
Ba/F3‐FGFR1‐V561F [2]
  effect on apoptosis: weak effect
Ba/F3‐FGFR1‐V561F [3]
  effect on cell cycle: weak effect
